Reference: patent US20060057696A1, “Sugar chain synthases” (priority 2002, published 2006)

What was measured:
[1] = target: T1, PA-hST8Sia VI (human ST8Sia VI) (Homo sapiens, UniProt P61647, L267F); test: Sialyltransferase activity of PA-hST8Sia VI toward acceptor substrates; assay type: biochemical; conditions: incorporation with Fetuin taken as 100, substrate 0.5 mg/ml glycolipids, 1 mg/ml glycoproteins, monosaccharides and oligosaccharides
T1 construct: amino acids 68-398 in the case of human ST8Sia VI; signal peptide of mouse immunoglobulin IgM (N); made in house; host or cells: COS-7 cells, transient expression of pcDSA-hST8Sia VI; protein recovered from medium on IgG-Sepharose
T1 sequence (P61647 68-398 L267F): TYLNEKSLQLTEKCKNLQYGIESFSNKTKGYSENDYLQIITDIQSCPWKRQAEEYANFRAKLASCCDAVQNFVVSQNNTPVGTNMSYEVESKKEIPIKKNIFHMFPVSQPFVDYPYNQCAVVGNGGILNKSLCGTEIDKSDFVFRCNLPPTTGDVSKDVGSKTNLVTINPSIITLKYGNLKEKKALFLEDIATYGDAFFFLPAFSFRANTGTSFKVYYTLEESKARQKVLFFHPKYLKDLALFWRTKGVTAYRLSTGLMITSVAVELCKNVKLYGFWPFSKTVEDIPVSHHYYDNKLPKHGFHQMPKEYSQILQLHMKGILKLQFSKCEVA
Procedure: (§1) Using each expression vector and lipofectamine (Invitrogen), transient expression was carried out in COS-7 cells (Kojima, N. et al. (1995) FEBS Lett. 360, 1-4). The proteins of the present invention secreted from the cells into which each expression vector had been introduced were named as PA-mST8Sia VI (mouse) and PA-hST8Sia VI (human). PA-mST8Sia VI and PA-hST8Sia VI were adsorbed to IgG-Sepharose (Amersham Pharmacia Biotech), and were then recovered from medium. Sialyltransferase activity was measured as follows according to the method of Lee et al. (Lee, Y.-C. et al. (1999) J. Biol. Chem. 274, 11958-11967). A reaction solution (10 μl) containing 50 mM MES buffer (pH 6.0), 1 mM MgCl2, 1 mM CaCl2, 0.5% Triton CF-54, 100 μM CMP-[^14C]-NeuAc, a glycoconjugate (which was added at 0.5 mg/ml in the case of glycolipids, and at 1 mg/ml in the case of glycoproteins or oligosaccharides), and a PA-mST8Sia VI or PA-hST8Sia VI suspension, was incubated at 37° C. for 3 to 20 hours. Thereafter, in the case of glycolipids, the reaction product was purified with a C-18 column (Sep-Pak Vac 100 mg; Waters) and the purified product was used as a sample, and in the case of oligosaccharides or glycoproteins, the reaction product was directly used as a sample. Thus, the obtained samples were subjected to analysis. In the case of oligosaccharides or glycolipids, the sample was spotted on a silica gel 60 HPTLC plate (Merck), and was then developed with a developing solvent consisting of ethanol:pyridine:n-butanol:water:acetic acid=100:10:10:30:3 (for oligosaccharides), a developing solvent consisting of 1-propanol:ammonia water:water=6:1:2.5 (for oligosaccharides), or a developing solvent consisting of chloroform:methanol: 0.02% CaCl2=55:45:10 (for glycolipids). In the case of glycoproteins, analysis was carried out by SDS-polyacrylamide gel electrophoresis. The obtained radioactivities were visualized with a BAS2000 radio image analyzer (Fuji Film) and then quantified.

[2] = target: T2, PA-mST8Sia VI (mouse ST8Sia VI) (Mus musculus, UniProt Q8K4T1); test: Sialyltransferase activity of PA-mST8Sia VI toward acceptor substrates; assay type: biochemical; conditions: for Relative rate (%) Mouse ST8SiaVI: incorporation with Fetuin taken as 100, substrate 0.5 mg/ml glycolipids, 1 mg/ml glycoproteins, monosaccharides and oligosaccharides
T2 construct: amino acids 26-398 in the case of mouse ST8Sia VI; signal peptide of mouse immunoglobulin IgM (N); made in house; host or cells: COS-7 cells, transient expression of pcDSA-mST8Sia VI; protein recovered from medium on IgG-Sepharose
T2 sequence (Q8K4T1 26-398): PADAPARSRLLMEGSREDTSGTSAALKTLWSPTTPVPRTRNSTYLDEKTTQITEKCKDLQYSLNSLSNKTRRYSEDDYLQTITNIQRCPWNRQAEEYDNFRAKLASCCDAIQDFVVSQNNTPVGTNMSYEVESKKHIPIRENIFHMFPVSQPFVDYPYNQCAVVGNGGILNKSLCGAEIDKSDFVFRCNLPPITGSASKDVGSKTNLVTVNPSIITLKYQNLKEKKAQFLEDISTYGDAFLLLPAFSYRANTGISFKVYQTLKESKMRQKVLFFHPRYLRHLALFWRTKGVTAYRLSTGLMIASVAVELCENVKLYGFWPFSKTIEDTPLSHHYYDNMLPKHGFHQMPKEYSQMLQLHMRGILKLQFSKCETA
Procedure: as §1

With `CC(=O)N[C@H]1[C@H]([C@H](O)[C@H](O)CO)O[C@@](O[C@H]2[C@@H](O)[C@@H](CO)O[C@@H](O[C@H]3[C@H](O)[C@@H](O)C(O)O[C@@H]3CO)[C@@H]2O)(C(=O)O)C[C@@H]1O` (some centres unmarked) [3′-Sialyllactose, NeuAcα2,3Galβ1,4Glc] the “Relative rate (%) Human ST8Sia VI” value [1] was 69.9% and the “Relative rate (%) Mouse ST8SiaVI” value [2] was 629%.

`CC(=O)NC1C(O)CC(OCC2OC(OC3C(CO)OC(O)C(O)C3O)C(O)C(O)C2O)(C(=O)O)OC1C(O)C(O)CO` (centres unmarked) [6′-Sialyllactose, NeuAcα2,6Galβ1,4Glc] was tested, and the “Relative rate (%) Human ST8Sia VI” value [1] was 10.7% and the “Relative rate (%) Mouse ST8SiaVI” value [2] was 91.5%.

With “NeuAcα2,3Galβ1,3GalNAcβ1,4(NeuAca2,3)Galβ1,4Glcβ1-Cer [GD1a]” the “Relative rate (%) Human ST8Sia VI” value [1] was 1.8%, the “activity of PA-mST8Sia VI on the substrate (in words)” value [2] was “showed activity” and the “Relative rate (%) Mouse ST8SiaVI” value [2] was 6.0%.

For “NeuAcα2,8Galβ1,3GalNAcβ1,4(NeuAcα2,8NeuAcα2,3)Galβ1,4Glcβ1-Cer [GT1b]”, the “Relative rate (%) Human ST8Sia VI” value [1] was 2.2%, the “activity of PA-mST8Sia VI on the substrate (in words)” value [2] was “showed activity” and the “Relative rate (%) Mouse ST8SiaVI” value [2] was 1.1%.

“NeuAcα2,8NeuAcα2,3Galβ1,4Glcβ1-Cer [GD3]” was tested, and the “Relative rate (%) Human ST8Sia VI” value [1] was 0% and the “Relative rate (%) Mouse ST8SiaVI” value [2] was 0%.

For “NeuAcα2,8NeuAcα2,8Galβ1,3GalNAcβ1,4(NeuAcα2,8NeuAcα2,3)Galβ1,4Glcβ1-Cer [GQ1b]”, the “Relative rate (%) Human ST8Sia VI” value [1] was 0% and the “Relative rate (%) Mouse ST8SiaVI” value [2] was 0%.
